# Reference: publication PMC10123561 (Signal Transduction and Targeted Therapy, 2023)
# Several values for one entry are separate records, joined by “and”; a condition that tells them apart may be missing. Identical values can stand only once. Counter-ions that a name gives are not always drawn.
# Experiments:
# [1] = test system: SARS-CoV-2 Delta; assay type: cell-based
# [2] = test system: SARS-CoV-2 Omicron; assay type: cell-based
Structure (SMILES),EC50 [1],EC50 [2]
CCC(CC)COC(=O)[C@H](C)N[P@](=O)(OC[C@H]1O[C@@](C#N)(c2ccc3c(N)ncnn23)[C@H](O)[C@@H]1O)Oc1ccccc1 [Remdesivir],850 nM and 1110 nM,1500 ± 200 nM
"Cc1c(O)cccc1C(=O)N[C@@H](CSc1ccccc1)[C@H](O)CN1C[C@H]2CCCC[C@H]2C[C@H]1C(=O)NC(C)(C)C [nelfinavir, Nelfinavir Mesylate]",2090 nM and 1760 nM,2030 nM and 1730 nM
